Measurements reported in patent US9090670B2, “Use of peptides for promoting wound healing” (priority 2008, dated 2015).
Where no end group is shown, it is not given here.

Legend:
[1] = tested on: human buccal epithelial cell line TR146; assay: In vitro scratch wound closure assay on an epithelial monolayer; type: cell-based
Description: The human buccal epithelial cell line TR146 (Rupniak et al; J Natl Cancer Inst. 1985 October: 75(4):621-35) was kindly provided by Cancer Research UK. Cells were grown in Dulbecco's modified Eagle medium with 4.5 g/l glucose (Invitrogen), 10% FCS (HyClone) and 100 U/ml penicillin, […] streptomycin, and 250 ng/ml amphotericinB (Antibiotic antimyotic solution, Sigma,), at 37° C., 95% humidity and 5% CO2. Cells were maintained until near confluence and then briefly treated with 0.25% trypsin-EDTA 1× (Invitrogen) to detach them, counted in a hepacytometer and seeded into new flasks or multi-well plates at the required cell density of about 1.5×10^5 cells/well. Wound assays were performed as previously described ([…] et al., 1993, J Cell Sci. 106 (Pt 3):869-78). In brief, cells were grown in 12-well plates until confluence, and then were serum deprived for 24 hours in keratinocyte serum free medium (SFM (Invitrogen)). In each well a scratch was made in the cellular monolayer using a sterile tip. The wounded monolayer was washed with SFM to remove cellular debris, and the following conditions were applied: • (i) Whole saliva and salivary secretions applied in 30% (v/v) in SFM. As a negative control 30% (v/v) saliva buffer was used. • (ii) (ii) rhEGF (Invitrogen) as a positive control • (iii) rp-HPLC fractions containing salivary proteins; • (iv) synthetic peptides: the experiments with isolated proteins and synthetic peptides were performed in full SFM. The width of the wound area was determined microscopically immediately after wound creation and at approximately 16 hours after wounding. The relative closure was calculated by relating the closure to that of the negative control.

[2] = tested on: human buccal epithelial cell line TR146; assay: In vitro wound closure with inhibitors of EGFR, p38 MAPK and ERK1/2; type: cell-based
Description: Wound assays were performed as previously described (Matthay et al., 1993, J Cell Sci. 106 (Pt 3):869-78). In brief, cells were grown in 12-well plates until confluence, and then were serum deprived for 24 hours in keratinocyte serum free medium (SFM (Invitrogen)). In each well a scratch was made in the cellular monolayer using a sterile tip. The wounded monolayer was washed with SFM to remove cellular debris, and the following conditions were applied: • (i) Whole saliva and salivary secretions applied in 30% (v/v) in SFM. As a negative control 30% (v/v) saliva buffer was used. • (ii) (ii) rhEGF (Invitrogen) as a positive control • (iii) rp-HPLC fractions containing salivary proteins; • (iv) synthetic peptides: the experiments with isolated proteins and synthetic peptides were performed in full SFM.
For inhibitor studies; directly after wounding cells were exposed to inhibitors of ERK1/2 (U0126, 5 μM, LC Laboratories), EGFR (AG1478, 1 μM, Calbiochem), and p38 MAPK (SB203580, 5 μM; LC Laboratories). Experiments were done in quadruplicate and analyzed using One-way ANOVA to determine significance with additional LSD post hoc test, P<0.05 was considered significant.

Compound: CC(C)C[C@H](NC(=O)[C@H](Cc1ccc(O)cc1)NC(=O)[C@H](CC(N)=O)NC(=O)[C@H](CO)NC(=O)[C@H](CCCNC(=N)N)NC(=O)[C@H](Cc1ccc(O)cc1)NC(=O)CNC(=O)[C@H](CCCNC(=N)N)NC(=O)[C@H](Cc1c[nH]cn1)NC(=O)[C@H](CO)NC(=O)[C@H](Cc1c[nH]cn1)NC(=O)[C@H](Cc1c[nH]cn1)NC(=O)[C@H](CCCCN)NC(=O)[C@H](CCC(=O)O)NC(=O)[C@H](Cc1c[nH]cn1)NC(=O)[C@H](Cc1ccccc1)NC(=O)[C@H](CCCCN)NC(=O)[C@H](CCCNC(=N)N)NC(=O)[C@H](CCCCN)NC(=O)[C@H](Cc1ccc(O)cc1)NC(=O)CNC(=O)[C@H](Cc1c[nH]cn1)NC(=O)[C@H](Cc1c[nH]cn1)NC(=O)[C@H](CCCNC(=N)N)NC(=O)[C@H](CCCCN)NC(=O)[C@H](C)NC(=O)[C@H](Cc1c[nH]cn1)NC(=O)[C@H](CO)NC(=O)[C@@H](N)CC(=O)O)C(=O)N[C@@H](Cc1ccc(O)cc1)C(=O)N[C@@H](CC(=O)O)C(=O)N[C@@H](CC(N)=O)C(=O)O [Histatin 3]
- induction of wound closure (in words) ([1]; synthesized peptides in SFM, vs control): induce wound closure

Compound: C-HST1: cyclic peptide having the amino acid sequence according to SEQ. ID. NO. 4, Histatin 1 (DSHEKRHHGYRRKFHEKHHSHREFPFYGDYGSNYLYDN; ends and bridges not checked; also: cyclic, mode of cyclisation not given here)
- relative wound closure ([1]; concentration of 1*10-3 μM, FIG. 4, 1 = no peptide added): 1.5

Compound: EGF: epidermal growth factor, rhEGF (Invitrogen), used as a positive control
- induced wound closure with EGFR blocked ([2]; AG1478 1 μM): abolished the effect
- pathway dependence of induced wound closure ([2]; SB203580 5 μM (p38 MAPK), U0126 5 μM (ERK1/2), FIG. 2): p38^MAPK dependent
- induction of wound closure by EGF ([1]; 5 ng/ml, FIG. 1D): able to induce wound closure with rates comparable to that of parotid saliva
- Wound closure rel. clos. ± SD ([1]; TR146 monolayer, approx. 16 hours after wounding, closure relative to negative control, peptides tested at 1-50 μg/ml): 1.41 ± 0.12
